Patent US5185320A, “O^56 -alkyl derivatives of aglycone and pseudo aglycones of teicoplanin” (Gruppo Lepetit S.p.A., priority 1989, dated 1993)

Legend:
Type in all cases: cell-based
Conditions in all cases: inoculum about 10^4 CFU/ml, 18-24 h at 37° C.
Strep. pneumoniae UC41 = test: MIC, standard dilution test, Strep. pneumoniae UC41
Protocol: (§1) ISOSENSITEST broth (Oxoid) and TOLLD-HEWITT broth (Difco) are used for growing staphylococci and streptococci, respectively. Broth cultures are diluted so that the final inoculum is about 10^4 colony forming units/ml (CFU/ml).

[1] = system: Strep. faecalis ATCC 7080; test: MIC, standard dilution test, Strep. faecalis ATCC 7080
Protocol: as §1

[2] = system: Staph. haemolyticus L 602; test: MIC, standard dilution test, Staph. haemolyticus L 602
Protocol: as §1

[3] = system: Neisseria gonorrhoeae ISM68/126; test: MIC, standard dilution test, Neisseria gonorrhoeae ISM68/126
Protocol: as §1

[4] = system: Proteus vulgaris ATCC 881; test: MIC, standard dilution test, Proteus vulgaris ATCC 881
Protocol: as §1

[5] = system: Haemophilus influenzae ATCC 19418; test: MIC, standard dilution test, Haemophilus influenzae ATCC 19418
Protocol: as §1

[6] = system: Pseudomonas aeruginosa ATCC 10145; test: MIC, standard dilution test, Pseudomonas aeruginosa ATCC 10145
Protocol: as §1

Strep. mitis L 796 = test: MIC, standard dilution test, Strep. mitis L 796
Protocol: as §1

Strep. pyogenes C 203 = test: MIC, standard dilution test, Strep. pyogenes C 203
Protocol: as §1

[7] = system: Escherichia coli SKF 12140; test: MIC, standard dilution test, Escherichia coli SKF 12140
Protocol: as §1

Staph. aureus Tour L 165 = test: MIC, standard dilution test, Staph. aureus Tour L 165
Protocol: as §1

[8] = system: Staph. epidermidis ATCC 12228; test: MIC, standard dilution test, Staph. epidermidis ATCC 12228
Protocol: as §1

For `COC(=O)C1NC(=O)C2NC(=O)C(NC(=O)C3NC(=O)C4NC(=O)C(Cc5ccc(c(Cl)c5)Oc5cc3cc(c5OCC3CO3)Oc3ccc(cc3Cl)C2O)NC(=O)C(N)c2ccc(O)c(c2)Oc2cc(O)cc4c2)c2ccc(O)c(c2)-c2c(O)cc(O)cc21.Cl` (stereo not shown) [Compound 1, O^56-(2,3-epoxypropyl)deglucoteicoplanin methyl ester], the “Minimal inhibitory concentration (MIC)” value (Strep. pneumoniae UC41) was 0.125, the “Minimal inhibitory concentration (MIC)” value [1] was 0.5 and the “Minimal inhibitory concentration (MIC)” value [2] was 1. For the same compound, the “Minimal inhibitory concentration (MIC)” value [3] was 64, the “Minimal inhibitory concentration (MIC)” value [4] was 64 and the “Minimal inhibitory concentration (MIC)” value [5] was 64. For the same compound, the “Minimal inhibitory concentration (MIC)” value [6] was greater than 128, the “Minimal inhibitory concentration (MIC)” value (Strep. mitis L 796) was 0.25 and the “Minimal inhibitory concentration (MIC)” value (Strep. pyogenes C 203) was 0.063. The “Minimal inhibitory concentration (MIC)” value [7] was 32, the “Minimal inhibitory concentration (MIC)” value (Staph. aureus Tour L 165) was 0.125 and the “Minimal inhibitory concentration (MIC)” value [8] was 0.063.
In the case of `COC(=O)C1NC(=O)C2NC(=O)C(NC(=O)C3NC(=O)C4NC(=O)C(Cc5ccc(c(Cl)c5)Oc5cc3cc(c5OCCCCN3C(=O)c5ccccc5C3=O)Oc3ccc(cc3Cl)C2O)NC(=O)C(N)c2ccc(O)c(c2)Oc2cc(O)cc4c2)c2ccc(O)c(c2)-c2c(O)cc(O)cc21.Cl` (stereo not shown) [Compound 2, O^56-[4(N-phthalimido)butyl]deglucoteicoplanin methyl ester], the “Minimal inhibitory concentration (MIC)” value (Strep. pneumoniae UC41) is reported as 0.125, the “Minimal inhibitory concentration (MIC)” value [1] is reported as 4 and the “Minimal inhibitory concentration (MIC)” value [2] is reported as 4. The “Minimal inhibitory concentration (MIC)” value [3] was greater than 128, the “Minimal inhibitory concentration (MIC)” value [4] was greater than 128 and the “Minimal inhibitory concentration (MIC)” value [5] was greater than 128. For the same compound, the “Minimal inhibitory concentration (MIC)” value [6] was greater than 128, the “Minimal inhibitory concentration (MIC)” value (Strep. mitis L 796) was 0.125 and the “Minimal inhibitory concentration (MIC)” value (Strep. pyogenes C 203) was 0.125. The “Minimal inhibitory concentration (MIC)” value [7] was greater than 128, the “Minimal inhibitory concentration (MIC)” value (Staph. aureus Tour L 165) was 2 and the “Minimal inhibitory concentration (MIC)” value [8] was 2.
`COC(=O)C1NC(=O)C2NC(=O)C(NC(=O)C3NC(=O)C4NC(=O)C(Cc5ccc(c(Cl)c5)Oc5cc3cc(c5OC(CCO)C(=O)O)Oc3ccc(cc3Cl)C2O)NC(=O)C(N)c2ccc(O)c(c2)Oc2cc(O)cc4c2)c2ccc(O)c(c2)-c2c(O)cc(O)cc21.Cl` (stereo not shown) [Compound 3, O^56-(1-carboxy-3-hydroxypropyl)deglucoteicoplanin methyl ester hydrochloride] was tested, and the “Minimal inhibitory concentration (MIC)” value (Strep. pneumoniae UC41) was 0.125, the “Minimal inhibitory concentration (MIC)” value [1] was 0.125 and the “Minimal inhibitory concentration (MIC)” value [2] was 2. For the same compound, the “Minimal inhibitory concentration (MIC)” value [3] was 64, the “Minimal inhibitory concentration (MIC)” value [4] was greater than 128 and the “Minimal inhibitory concentration (MIC)” value [5] was greater than 128. For the same compound, the “Minimal inhibitory concentration (MIC)” value [6] was greater than 128, the “Minimal inhibitory concentration (MIC)” value (Strep. mitis L 796) was 0.25 and the “Minimal inhibitory concentration (MIC)” value (Strep. pyogenes C 203) was 0.125. For the same compound, the “Minimal inhibitory concentration (MIC)” value [7] was greater than 128, the “Minimal inhibitory concentration (MIC)” value (Staph. aureus Tour L 165) was 0.5 and the “Minimal inhibitory concentration (MIC)” value [8] was 0.25.
In the case of `COC(=O)C1NC(=O)C2NC(=O)C(NC(=O)C3NC(=O)C4NC(=O)C(Cc5ccc(c(Cl)c5)Oc5cc3cc(c5OC(CCO)C(=O)NCCN)Oc3ccc(cc3Cl)C2O)NC(=O)C(N)c2ccc(O)c(c2)Oc2cc(O)cc4c2)c2ccc(O)c(c2)-c2c(O)cc(O)cc21.Cl` (stereo not shown) [Compound 4, O^56-[1-[[2-aminoethylamino]carbonyl]3-hydroxypropyl]deglucoteicoplanin methyl ester hydrochloride], the “Minimal inhibitory concentration (MIC)” value (Strep. pneumoniae UC41) is reported as 0.25, the “Minimal inhibitory concentration (MIC)” value [1] is reported as 0.25 and the “Minimal inhibitory concentration (MIC)” value [2] is reported as 0.5. For the same compound, the “Minimal inhibitory concentration (MIC)” value [3] was 64, the “Minimal inhibitory concentration (MIC)” value [4] was 128 and the “Minimal inhibitory concentration (MIC)” value [5] was 128. The “Minimal inhibitory concentration (MIC)” value [6] was 64, the “Minimal inhibitory concentration (MIC)” value (Strep. mitis L 796) was 0.125 and the “Minimal inhibitory concentration (MIC)” value (Strep. pyogenes C 203) was 0.063. The “Minimal inhibitory concentration (MIC)” value [7] was 16, the “Minimal inhibitory concentration (MIC)” value (Staph. aureus Tour L 165) was 0.125 and the “Minimal inhibitory concentration (MIC)” value [8] was 0.125.
With `COC(=O)C1NC(=O)C2NC(=O)C(NC(=O)C3NC(=O)C4NC(=O)C(Cc5ccc(c(Cl)c5)Oc5cc3cc(c5OCCCCN)Oc3ccc(cc3Cl)C2O)NC(=O)C(N)c2ccc(O)c(c2)Oc2cc(O)cc4c2)c2ccc(O)c(c2)-c2c(O)cc(O)cc21` (stereo not shown) [Compound 5, O^56-(4-aminobutyl)deglucoteicoplanin methyl ester] the “Minimal inhibitory concentration (MIC)” value (Strep. pneumoniae UC41) was 0.125, the “Minimal inhibitory concentration (MIC)” value [1] was 0.125 and the “Minimal inhibitory concentration (MIC)” value [2] was 0.5. For the same compound, the “Minimal inhibitory concentration (MIC)” value [4] was 32, the “Minimal inhibitory concentration (MIC)” value [6] was 32 and the “Minimal inhibitory concentration (MIC)” value (Strep. mitis L 796) was 0.125. For the same compound, the “Minimal inhibitory concentration (MIC)” value (Strep. pyogenes C 203) was 0.063, the “Minimal inhibitory concentration (MIC)” value [7] was 8 and the “Minimal inhibitory concentration (MIC)” value (Staph. aureus Tour L 165) was 0.125. For the same compound, the “Minimal inhibitory concentration (MIC)” value [8] was 0.125.
For `COC(=O)C1NC(=O)C2NC(=O)C(NC(=O)C3NC(=O)C4NC(=O)C(Cc5ccc(c(Cl)c5)Oc5cc3cc(c5OCCCCN(CCN(C)C)CCN(C)C)Oc3ccc(cc3Cl)C2O)NC(=O)C(N)c2ccc(O)c(c2)Oc2cc(O)cc4c2)c2ccc(O)c(c2)-c2c(O)cc(O)cc21` (stereo not shown) [Compound 6, O^56-[4-[bis[2-(dimethylamino)ethyl]amino]butyl]deglucoteicoplanin methyl ester], the “Minimal inhibitory concentration (MIC)” value (Strep. pneumoniae UC41) was 0.25, the “Minimal inhibitory concentration (MIC)” value [1] was 0.5 and the “Minimal inhibitory concentration (MIC)” value [2] was 0.5. The “Minimal inhibitory concentration (MIC)” value [3] was 128, the “Minimal inhibitory concentration (MIC)” value [4] was greater than 128 and the “Minimal inhibitory concentration (MIC)” value [6] was greater than 128. The “Minimal inhibitory concentration (MIC)” value (Strep. mitis L 796) was 0.125, the “Minimal inhibitory concentration (MIC)” value (Strep. pyogenes C 203) was 0.032 and the “Minimal inhibitory concentration (MIC)” value [7] was 16. The “Minimal inhibitory concentration (MIC)” value (Staph. aureus Tour L 165) was 0.25 and the “Minimal inhibitory concentration (MIC)” value [8] was 0.25.
`COC(=O)C1NC(=O)C2NC(=O)C(NC(=O)C3NC(=O)C4NC(=O)C(Cc5ccc(c(Cl)c5)Oc5cc3cc(c5OCCCl)Oc3ccc(cc3Cl)C2O)NC(=O)C(N)c2ccc(O)c(c2)Oc2cc(O)cc4c2)c2ccc(O)c(c2)-c2c(O)cc(O)cc21` (stereo not shown) [Compound 7, O^56-(2-chloroethyl) deglucoteicoplanin methyl ester] was tested, and the “Minimal inhibitory concentration (MIC)” value (Strep. pneumoniae UC41) was 0.125, the “Minimal inhibitory concentration (MIC)” value [1] was 2 and the “Minimal inhibitory concentration (MIC)” value [2] was 1. The “Minimal inhibitory concentration (MIC)” value [3] was greater than 128, the “Minimal inhibitory concentration (MIC)” value [4] was greater than 128 and the “Minimal inhibitory concentration (MIC)” value [5] was 64. For the same compound, the “Minimal inhibitory concentration (MIC)” value [6] was greater than 128, the “Minimal inhibitory concentration (MIC)” value (Strep. mitis L 796) was 0.25 and the “Minimal inhibitory concentration (MIC)” value (Strep. pyogenes C 203) was 0.125. The “Minimal inhibitory concentration (MIC)” value [7] was greater than 128, the “Minimal inhibitory concentration (MIC)” value (Staph. aureus Tour L 165) was 0.125 and the “Minimal inhibitory concentration (MIC)” value [8] was 0.5.
For `COC(=O)C1NC(=O)C2NC(=O)C(NC(=O)C3NC(=O)C4NC(=O)C(Cc5ccc(c(Cl)c5)Oc5cc3cc(c5OCCO)Oc3ccc(cc3Cl)C2O)NC(=O)C(N)c2ccc(O)c(c2)Oc2cc(O)cc4c2)c2ccc(O)c(c2)-c2c(O)cc(O)cc21` (stereo not shown) [Compound 8, O^56-(2-hydroxyethyl) deglucoteicoplanin methyl ester], the “Minimal inhibitory concentration (MIC)” value (Strep. pneumoniae UC41) was 0.125, the “Minimal inhibitory concentration (MIC)” value [1] was 0.125 and the “Minimal inhibitory concentration (MIC)” value [2] was 2. For the same compound, the “Minimal inhibitory concentration (MIC)” value [3] was 32, the “Minimal inhibitory concentration (MIC)” value [4] was greater than 128 and the “Minimal inhibitory concentration (MIC)” value [5] was 64. For the same compound, the “Minimal inhibitory concentration (MIC)” value [6] was greater than 128, the “Minimal inhibitory concentration (MIC)” value (Strep. mitis L 796) was 0.125 and the “Minimal inhibitory concentration (MIC)” value (Strep. pyogenes C 203) was 0.063. For the same compound, the “Minimal inhibitory concentration (MIC)” value [7] was 32, the “Minimal inhibitory concentration (MIC)” value (Staph. aureus Tour L 165) was 0.125 and the “Minimal inhibitory concentration (MIC)” value [8] was 0.125.
With `CNC(=O)C1NC(=O)C2NC(=O)C(NC(=O)C3NC(=O)C4NC(=O)C(Cc5ccc(c(Cl)c5)Oc5cc3cc(c5OCCCCN)Oc3ccc(cc3Cl)C2O)NC(=O)C(N)c2ccc(O)c(c2)Oc2cc(O)cc4c2)c2ccc(O)c(c2)-c2c(O)cc(O)cc21` (stereo not shown) [Compound 9, O^56-(4-aminobutyl)-deglucoteicoplanin methylamide] the “Minimal inhibitory concentration (MIC)” value (Strep. pneumoniae UC41) was 0.125, the “Minimal inhibitory concentration (MIC)” value [1] was 0.125 and the “Minimal inhibitory concentration (MIC)” value [2] was 0.25. For the same compound, the “Minimal inhibitory concentration (MIC)” value [3] was 64, the “Minimal inhibitory concentration (MIC)” value [4] was 32 and the “Minimal inhibitory concentration (MIC)” value [5] was 64. For the same compound, the “Minimal inhibitory concentration (MIC)” value [6] was 64, the “Minimal inhibitory concentration (MIC)” value (Strep. mitis L 796) was 0.125 and the “Minimal inhibitory concentration (MIC)” value (Strep. pyogenes C 203) was 0.063. For the same compound, the “Minimal inhibitory concentration (MIC)” value [7] was 8, the “Minimal inhibitory concentration (MIC)” value (Staph. aureus Tour L 165) was 0.25 and the “Minimal inhibitory concentration (MIC)” value [8] was 0.125.
For `COC(=O)CNC(=O)CNCCOc1c2cc3cc1Oc1ccc(cc1Cl)C(O)C1NC(=O)C(NC(=O)C3NC(=O)C3NC(=O)C(Cc4ccc(c(Cl)c4)O2)NC(=O)C(N)c2ccc(O)c(c2)Oc2cc(O)cc3c2)c2ccc(O)c(c2)-c2c(O)cc(O)cc2C(C(=O)OCCBr)NC1=O` (stereo not shown) [Compound 18, O^56-[2-[2-[(2-methoxy-2-oxoethyl)amino]-2-oxoethylamino]ethyl]deglucoteicoplanin 2-bromoethyl ester], the “Minimal inhibitory concentration (MIC)” value [2] was 2, the “Minimal inhibitory concentration (MIC)” value [4] was greater than 128 and the “Minimal inhibitory concentration (MIC)” value [6] was greater than 128. The “Minimal inhibitory concentration (MIC)” value (Strep. pyogenes C 203) was 0.125, the “Minimal inhibitory concentration (MIC)” value [7] was greater than 128 and the “Minimal inhibitory concentration (MIC)” value (Staph. aureus Tour L 165) was 0.13.
`NC1C(=O)NC2Cc3ccc(c(Cl)c3)Oc3cc4cc(c3OCCO)Oc3ccc(cc3Cl)C(O)C3NC(=O)C(NC(=O)C4NC(=O)C(NC2=O)c2cc(O)cc(c2)Oc2cc1ccc2O)c1ccc(O)c(c1)-c1c(O)cc(O)cc1C(C(=O)OCCO)NC3=O` (stereo not shown) [Compound 22, O^56-(2-hydroxyethyl)deglucoteicoplanin 2-hydroxyethyl ester] was tested, and the “Minimal inhibitory concentration (MIC)” value [2] was 0.5, the “Minimal inhibitory concentration (MIC)” value (Strep. pyogenes C 203) was 0.125 and the “Minimal inhibitory concentration (MIC)” value [7] was 32. For the same compound, the “Minimal inhibitory concentration (MIC)” value (Staph. aureus Tour L 165) was 0.06.
